This is an account of results in publication PMC5458519, “Splicing modulators act at the branch point adenosine binding pocket defined by the PHF5A–SF3b complex” (Nature Communications, 2017).

One experiment concerns HCT116 cells. Put plainly: 72 h growth inhibition profiling (CellTiter-Glo cellular viability assay), parental HCT116. Format: cell-based. The note with it: in HCT116. The method, then: (§1) For CellTiter-Glo analysis, 500 cells were seeded in each well of a 384-well plate the day before compound addition. An 11 pt serial dilution was used starting with a top final dosage of 10 μM for 10 additional doses. DMSO percentage was maintained throughout and a DMSO-only control was included. Seventy-two hours post compound addition, CellTiter-Glo reagent was added to the medium, incubated and assayed on EnVision Multilabel Reader (PerkinElmer). The luminescence value from each treatment sample was normalized to the average value of the respective DMSO control. The dosage response curve plots were generated using Graphpad Prism 6 and fit using nonlinear regression analysis and the log(inhibitor) versus response—Variable slope (four parameters). For heatmap summarization of IC50 shifts, IC50 value was extracted from dosage response curves and the fold changes of IC50 values in PHF5A variants expressing lines over that of the WT lines were calculated and plotted using TIBCO Spotfire software. For IC50s greater than the top dosage, the values were arbitrarily set at 10 μM. Unsupervised clustering analysis was performed in TIBCO Spotfire using the following default parameters: Clustering method: UPGMA; Distance measure: Euclidean; Ordering weight: Average value; Normalization: (None); Empty value replacement: Constant value: 0.
For orientation: ATP-based viability assays read luminescence as a measure of living cells.

The subject of the next experiment is PANC0504 cells. The experiment in a line: Growth inhibition of Panc0504 cells expressing PHF5A WT or Y36C. Format: cell-based. The method, then:
(§2) Parental HCT116 cells were obtained from ATCC and cultured in RPMI 1,640 medium (Thermo Fisher, GIBCO#11875) supplemented with 10% fetal bovine serum (FBS). Parental Panc0504 cells were obtained from ATCC and cultured in GIBCO RPMI 1,640 medium (Thermo Fisher, GIBCO#11875) supplemented with glucose (to 4.5 g l^−1 final), HEPES (10 mM final), sodium pyruvate (1 mM final), human insulin (10 μg ml^−1 final) and 15% FBS. Cell line authentication was achieved by genetic profiling using polymorphic short tandem repeat (STR) loci (ATCC). All cell lines were free of mycoplasma contamination. […]
(§3) For CellTiter-Glo analysis, 500 cells were seeded in each well of a 384-well plate the day before compound addition. […] Seventy-two hours post compound addition, CellTiter-Glo reagent was added to the medium, incubated and assayed on EnVision Multilabel Reader (PerkinElmer). The luminescence value from each treatment sample was normalized to the average value of the respective DMSO control. […] For heatmap summarization of IC50 shifts, IC50 value was extracted from dosage response curves and the fold changes of IC50 values in PHF5A variants expressing lines over that of the WT lines were calculated and plotted using TIBCO Spotfire software. […]

Experiment [1] relates to global splicing (splice junction usage). The experiment in a line: RNA-seq differential splicing analysis in PHF5A WT or Y36C overexpressing cells. Format: cell-based. Conditions: 100 nM. As to the method: Either PHF5A WT or Y36C mutant-overexpressing cells were treated with either DMSO or E7107 (100 nM and 10 μM) for 6 h in hexaplicate before lysed in TRIzol reagent (Thermo Fisher). After phase separation, the top aqueous phase was further processed using MagMAX-96 Total RNA Isolation Kit (Thermo Fisher, AM1830) for RNA extraction. RNA quality was assessed using Agilent tapestation with RNA screen tape. RNA-seq libraries were prepared by Beijing Genomic Institute (BGI) and sequenced on Illumina Hiseq 4,000 for 6G clean reads per sample. RNA-seq reads were aligned to hg19 by STAR[50] and raw junction counts generated by STAR were used for calculating PSI to quantify splice junction usage relative to all other splice junctions that share the same splice site as described before. Differential PSI were assessed between a pair of sample groups using moderated t-test defined in limma package[52] in Bioconductor. […]
The number of reads which cover the splice junction which excludes a given cassette exon (ES reads) are compared with both the number of spliced reads which share its 3′ splice site yet have an alternative 5′ splice site bordering the cassette exon (exon inclusion reads) and the number of reads which cross the exon–intron boundary at that same 3′ splice site (IR reads). […]

Experiment [2] concerns splicing of SLC25A19, EIF4A1 and MCL1. The experiment in a line: Taqman gene expression assay (SLC25A19 mRNA, EIF4A1 pre-mRNA, MCL1 isoforms) in PHF5A WT or Y36C HCT116 cells. Format: cell-based. Conditions: for induction of MCL1 ES and IR events: PHF5A WT cells, dose response, 4 h. The method, then:
Eight thousand cells of indicated genotypes were seeded in each well of 96-well plate and allowed to settle overnight. On the second day, 11 pt serial dilution (1:4 fold dilution across) of indicated compound with a top dosage of 10 μM final was added to the culturing medium. Four hours post compound addition, culturing medium was decanted and washed once with PBS. PBS was then decanted completely from the plate and Lysis buffer (plus DNase I) from TaqMan Gene Expression Cells-to-CT Kit (Thermo Fisher, cat # AM1729) was added according to the manual. After 5 min incubation at RT on the shaker, stop solution was added to each well and incubated for 2 min. Reverse transcription was set up immediately using the Cells-to-CT Kit and cDNAs were used for quantitative real-time PCR analysis using Viia7 (Thermo Fisher). Each reaction is multiplexed with an FAM-labelled probe targeting specific target gene splicing isoforms and a VIC-labelled probe targeted 18S rRNA as loading control. Therefore, the FAM Ct value in each well was first normalized to the VIC Ct value in the same well before further normalization to the FAM/VIC ratio of DMSO-treated control samples to calculate fold change over DMSO. Graphs were generated using Graphpad Prism 6, n=2. Taqman gene expression probes used in these assays are listed in Supplementary Table 1.

The test system of experiment [3] is HCT116 resistant clones (SF3B1-R1074H, SF3B1-V1078A/I, PHF5A-Y36C). Put plainly: 72 h growth inhibition profiling (CellTiter-Glo) of E7107- and herboxidiene-resistant HCT116 clones. Conditions: HCT116 clones with SF3B1-R1074H, SF3B1-V1078 or PHF5A-Y36C; 72 h CellTiter-Glo. Format: cell-based. The method, then:
In total, 2.5 million HCT116 cells were seeded in each 10 cm dish and treated with indicated dosages of splicing modulators for 2 weeks. Compounds were refreshed every 4 days. When needed, confluent dishes were split 1:3 and cells were allowed to recover overnight without splicing modulator treatment after re-seeding. At the end of the compound selection period, surviving individual clones were picked and transferred to 12-well plates. Individual resistant clones were further expanded without splicing modulator treatment and one million cells from each clone were pelleted for genomic DNA extraction using the DNeasy Blood & Tissue Kit from Qiagen. WXS libraries were generated by Novogene Corporation using Agilent SureSelect Human All Exon V6 kit and sequenced on Illumina HiSeq platform. 12G raw data were gathered for each sample. WXS reads were then aligned to hg19 by BWA-MEM[40] and somatic mutations were identified with MuTect2 (ref. [41]) through Sentieon pipeline[42] by pairing resistant clone with parental cell lines. As we selected the resistant clones for WXS, the allele frequencies for the mutations which are responsible for the resistance should be high. We focused on non-silent mutations (among the H3 curated spliceosome genes) with allele frequency higher than 0.2.
as §1

The next experiment concerns SF3B1 (R1074H). Also noted: method as in PMID 21981285. Conditions: single amino acid substitution R1074H in SF3B1; cited from earlier work.
Experiment [4] has as its system PHF5A variant expressing HCT116 cells. The experiment in a line: 72 h growth inhibition profiling (CellTiter-Glo) of PHF5A WT- or Y36/V37 variant-expressing HCT116 cells. Conditions: HCT116, 72 h. Format: cell-based. As to the method: as §2, §3

`CC[C@H](O)[C@@H](C)[C@H]1O[C@@H]1C[C@@](C)(O)/C=C/C=C(\C)[C@H]1OC(=O)C[C@H](O)CC[C@@](C)(O)[C@@H](OC(=O)N2CCN(C3CCCCCC3)CC2)/C=C/[C@@H]1C` [E7107]: the concentration for 50% growth inhibition (GI50) (commonly the concentration that inhibits growth by half) in the experiment on HCT116 cells (Homo sapiens, HCT-116) is 1.5 nM. For the same molecule, in the experiment with PANC0504 cells, the “resistance phenotype on PHF5A Y36C over-expression” value is “partial resistant phenotype”. Moreover, the figures for the “dominant MCL1 splicing event (Sashimi plot of RNA-seq)” value in experiment [1] (PHF5A WT cells) and in experiment [1] (PHF5A Y36C cells) were “IR was the dominant event” and “mainly ES events were observed”, respectively. The “induction of MCL1 ES and IR events” value in experiment [2] is given as “‘earlier' induction of MCL1 ES events than IR events at lower doses”. In experiment [2] (increasing dosage), the “MCL1-S production (ES events) in PHF5A-Y36C cells compared to WT” value is recorded as “enhanced to a higher level”. Further, the “resistance of resistant clones in growth inhibition profiling” value in experiment [3] is listed as “SF3B1-R1074H mutation conferred the most robust resistance”. For the same molecule, in the experiment with SF3B1 (R1074H), the “effect of SF3B1 R1074H on splicing-modulating and antiproliferative effects” value is given as “almost completely abolished”.
On to `CC(C)C[C@H](NC(=O)[C@H](Cc1ccccc1)NC(=O)c1cnccn1)B(O)O` [bortezomib, Bortezomib], for which, in experiment [3], the “resistance of resistant clones in growth inhibition profiling” value is “did not affect the cell lines' sensitivity”. The “resistance in PHF5A Y36 variant expressing cells” value in experiment [4] is given as “resistance only occurred to the treatment with splicing modulators but not bortezomib”.
As for `COC(C(C)O)C(C)C1OC1(C)CC(C)C=CC=C(C)C1OC(CC(=O)O)CCC1C` (stereo not drawn) [herboxidiene], the GI50 with HCT116 cells (Homo sapiens, HCT-116) stood at 7.6 nM. Besides, in experiment [3], the “resistance of resistant clones in growth inhibition profiling” value is given as “PHF5A-Y36C mutation rendered more resistance”.
For the molecule `CO[C@]1(C)C[C@@]2(CO2)[C@H](O)[C@@H](/C=C/C(C)=C/C[C@@H]2O[C@H](C)[C@H](NC(=O)/C=C\[C@H](C)OC(C)=O)C[C@@H]2C)O1` [spliceostatin A], the GI50 in the experiment with HCT116 cells is 0.76 nM. For the same molecule, the “resistance of resistant clones in growth inhibition profiling” value in experiment [3] was “SF3B1-R1074H mutation also conferred better resistance”.
For the molecule `CNC(=O)OC(C)C=CC(=O)NC1CCC(CC=C(C)C=CC2CC3(CO3)CC(C)(C)O2)CC1` (stereo not drawn) [sudemycin D6], in the experiment with HCT116 cells, the 50% growth inhibitory concentration (GI50) was 149 nM. For the same molecule, the “induction of MCL1 ES and IR events” value in experiment [2] is “IR events were not observed”. Moreover, the “resistance of resistant clones in growth inhibition profiling” value in experiment [3] is “SF3B1-R1074H mutation also conferred better resistance”.
For pladienolide B, the “effect of SF3B1 R1074H on splicing-modulating and antiproliferative effects” value in the experiment with SF3B1 (R1074H) is on record as “almost completely abolished”.
